Test results taken from patent US20070259872A1, “Inhibitors of soluble adenylate cyclase” (priority 2006, published 2007).

Target: soluble, sperm-specific adenylate cyclase (sAC) (Homo sapiens, UniProt Q96PN6)
Test: sAC-Assay (HTRF cAMP detection)
Assay type: biochemical
Settings: read-out: IC50 (inhibition of the soluble adenylate cyclase)
Excerpt: In a suitable buffer system, the soluble, sperm-specific adenylate cyclase catalyzes the reaction of adenosine triphosphate (ATP) to cyclic adenosine monophosphate (cAMP) and pyrophosphate. Free cAMP that is generated in this way is then used in a competitive detection process, in which the binding of a europium kryptate (Eu[K])-labeled anti-cAMP antibody (anti cAMP-Eu[K]-AK) to a cAMP-molecule-labeled, modified allophycocyanine-1 molecule (cAMP-XL665) is prevented. In the absence of exogenic cAMP, after excitation at 335 nm, it results in a fluorescence resonance energy transfer (FRET) between the anti cAMP-Eu[K]-AK (FRET-donor) and the cAMP-XL665 molecule (FRET-acceptor). This process is quantified at different times (time-resolved) based on the emission of FRET-acceptor XL665 (665 nm and 620 nm). A signal drop (measured as a wave ratio; calculation formula: [(E665 nm/E620 nm)×10000]) can be attributed to the presence of cAMP and thus to the activity of sAC.
First, 1.5 μl of the test substance (in 30% DMSO), only 30% DMSO in the solvent controls, is introduced per recess in a 384-hole test plate (polystyrene; 384, NV). […]
After an additional incubation of 90 minutes at room temperature, the HTRF result is measured either on the Packard Discovery or with the RubiStar HTRF measuring device (Delay: 50 μs; Integration time: 400 μs).

Chain of soluble, sperm-specific adenylate cyclase (sAC) (Q96PN6 whole entry): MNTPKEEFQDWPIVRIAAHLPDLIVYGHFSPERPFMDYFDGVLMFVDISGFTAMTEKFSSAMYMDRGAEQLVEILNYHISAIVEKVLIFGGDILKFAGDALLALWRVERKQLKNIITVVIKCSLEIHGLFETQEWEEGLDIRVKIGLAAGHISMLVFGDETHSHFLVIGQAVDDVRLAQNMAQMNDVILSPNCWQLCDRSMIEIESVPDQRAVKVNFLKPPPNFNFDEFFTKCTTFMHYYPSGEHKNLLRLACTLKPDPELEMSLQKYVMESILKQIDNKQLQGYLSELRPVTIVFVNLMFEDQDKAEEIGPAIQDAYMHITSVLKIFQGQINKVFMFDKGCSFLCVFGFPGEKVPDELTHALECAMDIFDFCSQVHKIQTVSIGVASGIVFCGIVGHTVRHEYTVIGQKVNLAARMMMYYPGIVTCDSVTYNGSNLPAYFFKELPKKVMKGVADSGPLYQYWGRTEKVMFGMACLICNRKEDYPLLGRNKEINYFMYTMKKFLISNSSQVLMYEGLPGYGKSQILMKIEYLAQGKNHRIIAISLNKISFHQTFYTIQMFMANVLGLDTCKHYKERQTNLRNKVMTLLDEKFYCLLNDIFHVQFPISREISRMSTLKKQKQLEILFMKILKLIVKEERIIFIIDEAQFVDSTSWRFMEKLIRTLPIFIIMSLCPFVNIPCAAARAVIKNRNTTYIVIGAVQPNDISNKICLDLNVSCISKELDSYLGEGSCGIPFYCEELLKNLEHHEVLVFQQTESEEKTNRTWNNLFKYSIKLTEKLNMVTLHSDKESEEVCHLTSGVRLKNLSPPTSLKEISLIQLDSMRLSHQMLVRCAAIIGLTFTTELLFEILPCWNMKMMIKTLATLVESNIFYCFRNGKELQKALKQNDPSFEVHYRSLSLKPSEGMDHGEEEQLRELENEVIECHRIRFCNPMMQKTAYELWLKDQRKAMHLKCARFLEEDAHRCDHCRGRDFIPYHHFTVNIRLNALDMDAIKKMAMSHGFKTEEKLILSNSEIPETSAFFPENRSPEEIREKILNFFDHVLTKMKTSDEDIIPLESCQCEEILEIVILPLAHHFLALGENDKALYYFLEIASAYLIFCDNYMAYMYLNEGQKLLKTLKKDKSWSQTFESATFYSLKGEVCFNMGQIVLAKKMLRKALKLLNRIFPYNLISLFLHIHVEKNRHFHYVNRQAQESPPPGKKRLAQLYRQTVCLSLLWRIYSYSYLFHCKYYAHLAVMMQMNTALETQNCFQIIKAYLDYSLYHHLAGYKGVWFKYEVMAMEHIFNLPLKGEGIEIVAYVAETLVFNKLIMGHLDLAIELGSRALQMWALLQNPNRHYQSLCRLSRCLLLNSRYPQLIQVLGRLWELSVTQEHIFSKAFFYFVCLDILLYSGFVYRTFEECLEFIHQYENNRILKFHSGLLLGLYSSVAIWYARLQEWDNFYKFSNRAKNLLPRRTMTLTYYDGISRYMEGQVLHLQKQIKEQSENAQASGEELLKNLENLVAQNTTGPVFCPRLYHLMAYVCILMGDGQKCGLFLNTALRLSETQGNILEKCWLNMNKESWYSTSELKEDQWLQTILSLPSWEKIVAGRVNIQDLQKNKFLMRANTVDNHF

IC50 [µM] | SMILES
3 | CC(C)(C)c1ccc(NS(=O)(=O)c2ccc3[nH]c(C(=O)NC4CCOCC4)c(-c4ccccc4)c3c2)cc1
1.6 | CC(O)CNC(=O)c1[nH]c2ccc(S(=O)(=O)Nc3ccc(C(C)(C)C)cc3)cc2c1-c1ccccc1 (racemic)
